# Laboratory results reported in PMC8624133, “10th Trends in Medical Mycology Held on 8 to 11 October 2021, Aberdeen, Scotland, Organized by the European Confederation of Medical Mycology (ECMM)” (Journal of Fungi, 2021).
# Where two headings read alike, the source gives them in different places.
# Experiments:
# [1] = tested on: C. auris clinical strains; experiment: organism not typed; type: cell-based, Candida auris; details: range, 78 strains from patients with COVID-19
# [2] = tested on: Candida sp. and other yeast isolates, planktonic; experiment: MIC of catheter yeast isolates, planktonic form; type: cell-based; details: range; read-out: MIC
# [3] = tested on: sessile cells of yeast mono and dual-species biofilms; experiment: MIC of catheter yeast isolates, mono and dual-species biofilms; type: cell-based; details: range
# [4] = tested on: Candida auris isolates; experiment: microbe, parasite or virus in culture; type: cell-based
# [5] = tested on: Candida auris isolates; experiment: Disc diffusion, Oxoid discs; type: cell-based
# [6] = tested on: environmental yeasts from a lagoon; experiment: organism not typed; type: cell-based
# [7] = tested on: Exophiala phaeomuriformis; experiment: MIC, CLSI M27-A3; type: cell-based; details: read-out: MIC values
# Procedure: Materials & Methods: The aviation kerosone samples came from an aviation company in Porto Alegre, state of Rio Grande do Sul, Brazil. The fungi isolation was carried out using the modified ASTM D6974-09 Standard. In this procedure, 500 mL kerosene samples were filtered, in triplicate, under aseptic conditions, under vacuum, using a 0.22 μm membrane (Millipore). After filtering, the membranes were deposited in potato dextrose agar culture medium. The plates were incubated in an oven at 30 °C for seven days. After this period, the colonies were isolated in new culture media for purification of the isolates. Molecular identification was performed through the sequencing of ITS DNA regions. The profile of sensitivity to clinical antifungals was assessed following protocols M27-A3 of the Clinical and Laboratory Standards Institute (CLSI).
# [8] = tested on: C. albicans; experiment: Candidemia Netherlands, MIC distributions against EUCAST ECOFF; type: cell-based, Candida albicans
# [9] = tested on: C. glabrata; experiment: as above; type: cell-based, Candida glabrata
# [10] = tested on: F. verticillioides; experiment: Etest susceptibility; type: cell-based, Fusarium verticillioides
# [11] = tested on: invasive C. glabrata strains; experiment: YeastOne Sensititre colorimetric broth microdilution; type: cell-based, Candida glabrata; details: Nakaseomyces glabratus
# Procedure: Material and Method: Thirty-six clinical isolates of invasive C. glabrata strains were analyzed in this study. Minimum inhibitory concentrations (MICs) were determined using colorimetric broth microdilution (YeastOneSensititre, Trek diagnostics). Genomic DNA was isolated using Qiagen DNA extraction Kit. The FKS1 and FKS2 gene fragment were amplified and PCR products were purified prior to sequencing. Double-strand sequencing of PCR products was performed using Sanger sequencing methodology. Sequences were analyzed with MEGA-6 software to identify specific SNP combination against wild-type sequences of C. glabrata.
# [12] = tested on: C. albicans; type: cell-based, Candida albicans
# [13] = tested on: C. parapsilosis; type: cell-based, Candida parapsilosis
# [14] = tested on: C. glabrata; type: cell-based, Candida glabrata
# [15] = tested on: C. tropicalis; type: cell-based, Candida tropicalis
# [16] = tested on: C. krusei; type: cell-based, Candida krusei
# [17] = tested on: Other species of Candida; type: cell-based, Candida spp.
# [18] = tested on: Aspergillus tubingensis; experiment: EUCAST susceptibility; type: cell-based
# Procedure: The fungus was identified as Aspergillus niger and liposomal amphotericine B was switched to anidulafungin pending susceptibility testing as the patient had pre-existing […] (eGFR CKD-EPI 40 mL/min/1.73 m²). […] Despite increasing the anidulafungin dosage to 200 mg daily and adequate voriconazol levels, serum galactomannan levels remained elevated (index 2.1 at discharge). […] Since no extracardiac sources were found and the patient did well clinically, they were discharched. Anidulafungin was switched to caspofungin to facilitate ongoing IV treatment in the outpatient setting. […] The patient died shortly after. Obduction was not performed.
# [19] = tested on: A. fumigatus (resistant to posaconazole strain v79-63); experiment: Neutropenic animal model of invasive pulmonary aspergillosis; type: in vivo, CD-1 mice
# [20] = tested on: A. fumigatus strain v79-63; experiment: EUCAST MIC of the infecting strain; type: cell-based; details: Aspergillus fumigatus, V7963
# [21] = tested on: A. niger complex; experiment: EUCAST E.Def 9.3.2 susceptibility, CPA isolates; type: cell-based, Aspergillus niger complex; details: n = 7, ECOFFs
# [22] = tested on: R. delemar 99–880; experiment: CLSI M38 in vitro susceptibility; type: cell-based, Rhizopus delemar; details: Rhizopus delemar, read-out: MIC at 100% inhibition of growth
# Procedure: (§1) Methods & Materials: In vitro susceptibility was conducted by the CLSI M38 method using a clinical isolate of Rhizopus delemar (a common cause of mucormycosis). ICR mice were immunosuppressed with cyclophosphamide and cortisone acetate on days −2, +3, and +8, relative to infection with intratracheally instilled R. delemar. […] Mice survival through Day +21 served as the primary endpoint.
# [23] = tested on: R. delemar; experiment: Murine mucormycosis, immunosuppressed mice infected intratracheally; type: in vivo, ICR mice; details: n = 20/arm
# Procedure: as §1
# [24] = tested on: McLDM strains; experiment: EUCAST MIC, S. cerevisiae overexpressing M. circinelloides LDM, resistance phenotypes; type: cell-based, Saccharomyces cerevisiae
# [25] = Triazole drug levels in ABPA patients with asthma; type: in vivo, human; details: 452 patients, Oct 2009 to March 2021
# Excerpt: Materials & Methods: This was a retrospective single-centre cohort study evaluating longitudinal outcomes in non-cystic fibrosis (CF) ABPA patients with underlying chronic lung disease (asthma), and description of treatment approaches. Statistical Analysis System (SAS) programming was used for data integration from multiple hospital electronic systems, for patient identification and data analysis. Criteria for inclusion were patients with a background of asthma, serum Total IgE >1000 IU/mL and a positive Aspergillus IgE, with or without a positive culture for A. fumigatus from a respiratory sample. Data collected included demographics, lung function severity, disease activity serological markers (Aspergillus IgE, Aspergillus IgG, Total IgE) and triazole levels. In this study the impact of fungal therapy on disease outcomes was assessed.
# [26] = tested on: C. auris Isolate B and Isolate C; experiment: microbe, parasite or virus in culture; type: cell-based, Candida auris
# [27] = tested on: Rhizopus arrhizus; experiment: E test; type: cell-based
# [28] = tested on: Rasamsonia argillacea species complex; experiment: Antifungal susceptibility testing; type: cell-based; details: sputum isolate of a CF patient
# [29] = tested on: azole-resistant A. fumigatus SS clinical strains; experiment: EUCAST E.DEF 9.3.2; type: cell-based; details: Aspergillus fumigatus
# [30] = tested on: C. tropicalis; experiment: ARIA surveillance, CLSI M27 broth microdilution; type: cell-based, Candida tropicalis
# Procedure: Materials & Methods: Isolates (n = 730) were collected and re-identified by MALDI-TOF or molecular methods. […] Percentage susceptibility (%S) or wild-type (%WT) were calculated according to CLSI breakpoints (CLSI supplement M60) or epidemiological cut-off values (CLSI supplement M59), respectively.
# [31] = tested on: Scedosporium apiospermum; experiment: EUCAST reference method MIC; type: cell-based
# Procedure: Case presentation: A patient presented with a bursitis of their left elbow. Six months before they were treated with lymphodepleting chemotherapy directly followed by B-cell associated CD19-specific chimeric antigen receptor (CAR) T cell therapy for recurrence of follicular lymphoma. They were considered immunocompromised, with total neutrophils and lymphocytes slightly below normal levels, absent B-cells, and a treatment associated persistent hypogammaglobulinaemia. Four weeks before presentation at our hospital they contacted their GP because of swelling and pain of their left elbow. Their GP aspirated fluid from their elbow, injected steroids and started antibiotics, but now there was recurrence of swelling and pain. Bursitis without arthritis was diagnosed by a rheumatologist and the bursa was surgically opened and drained, relieving pus. The patient was started on oral flucloxacillin and sent home. Two days later the culture of the pus from the bursa grew white colonies on a Sabouraud dextrose agar plate, showing long conidophores with large oval conidia on microscopy. […] Over the next few weeks the bursitis symptoms diminished. […] Voriconazole is considered first line treatment for Scedosporium infections. […] Eight weeks later there were no signs of bursitis and posaconazole was discontinued.
# [32] = tested on: Phaeoacremonium parasiticum; experiment: Antifungal susceptibility testing; type: cell-based
# Procedure: Results: Cultures for bacteria were sterile. Culture on Sabouraud was positive after 5 days of incubation, showing slow growing and initially white colonies. […] Its identification was performed by sequencing the internal transcribed spacer (ITS) region of ribosomal DNA, being the isolate identified as Phaeoacremonium parasiticum (100% homology).
# [33] = tested on: A. fumigatus strains; experiment: EUCAST E.DEF 9.3.2 broth microdilution; type: cell-based, Aspergillus fumigatus; parameters: MIC Range: unit not given beside the values; MIC50 / MIC90: unit not given here
# Procedure: Methods: The research was conducted on 29 A. fumigatus strains. Minimum inhibitory concentrations (MIC) were detected by broth microdilution method (BM) following EUCAST definitive document E.DEF 9.3.2 and E-test in accordance with manufacturer instructions.
# [34] = tested on: A. fumigatus veterinary isolates; experiment: EUCAST microdilution of veterinary isolates; type: cell-based, Aspergillus fumigatus
# Procedure: All have been confirmed as A. fumigatus by MALDI-TOF MS using the BCCM/IHEM database. The antifungal susceptibility was evaluated using the microdilution EUCAST method. Cyp51A gene sequencing has been performed on all resistant isolates.
# [35] = tested on: A. fumigatus complex; details: share of isolates, n = 59, EUCAST clinical breakpoints
# [36] = tested on: eumycetoma; details: in vivo; cited from earlier work
# Excerpt: Mycetoma: Mycetoma is a chronic, progressive, implantation inflammatory disease characterised by severe and stigmatising deformities, disability, and high morbidity. The disease is caused by fungi (eumycetoma) and several Actinomycetales members (actinomycetoma). Its estimative global burden is 9000 cases. There are no robust epidemiological studies on mycetoma in SA, but it is tconsidered the third most prevalent endemic IM in SA, especially among low socioeconomic adult males living in rural areas from Argentina, Brazil, Colombia and Venezuela, where the principal agents are Madurella spp. a ...
# [37] = tested on: A. fumigatus clinical isolates; experiment: Susceptibility of clinical isolates from CF patients; details: all 10 clinical isolates
smiles,measurement,setting,value
CC[C@H](C)C[C@H](C)CCCCCCCCC(=O)N[C@H]1C[C@@H](O)[C@@H](NCCN)NC(=O)[C@@H]2[C@@H](O)CCN2C(=O)[C@H]([C@H](O)CCN)NC(=O)[C@H]([C@H](O)[C@@H](O)c2ccc(O)cc2)NC(=O)[C@@H]2C[C@@H](O)CN2C(=O)[C@H]([C@@H](C)O)NC1=O [caspofungin],MIC,[1],0.06 to 1 µg/mL
same,MIC,[2],0.06 to 1 µg/mL
same,MIC,[3],0.5 to 16 µg/mL
same,categorised as resistant on MIC,[4]; CDC guidelines,13.2%
same,MIC,"[4]; Candidozyma auris, […], IQR given, read-out: median MIC",0.12 µg/mL
same,categorised as resistant on ZD,[5],none
same,median zone diameter (ZD),"[5]; 25 µg FLU and 5 µg CAS discs, […]",23 mm
same,isolates classified as resistant-like,"[6]; number of 71 yeasts, MIC at or above Candida breakpoint",48
same,MIC,"[6]; range, read-out: MIC of resistant-like isolates",1 to 128 µg/mL
same,MIC,[7],> 8 µg/mL
same,isolates within the wildtype distribution range,[8],98.9%
same,isolates within the wildtype distribution range,[9],87.1%
same,"minimum inhibitory concentration (MIC), in words",[10],high values
same,MIC,"[11]; 36 clinical isolates, read-out: median (Min–Max) MIC",0.06 µg/mL
same,MIC,[11]; isolate with FKS1 D632H,0.25 µg/mL
same,MIC,[11]; isolate with FKS2 I661T,0.12 µg/mL
same,"I (intermediate) isolates, n (%)",[12],0 (0%)
same,"R (resistant) isolates, n (%)",[12],0 (0%)
same,"S (sensitive) isolates, n (%)",[12],138 (100)
same,"I (intermediate) isolates, n (%)",[13],0 (0%)
same,"R (resistant) isolates, n (%)",[13],0 (0%)
same,"S (sensitive) isolates, n (%)",[13],132 (100%)
same,"R (resistant) isolates, n (%)",[14],3 (5.5%)
same,"S (sensitive) isolates, n (%)",[14],44 (80%)
same,"I (intermediate) isolates, n (%)",[15],0 (0%)
same,"R (resistant) isolates, n (%)",[15],0 (0%)
same,"S (sensitive) isolates, n (%)",[15],44 (100%)
same,"I (intermediate) isolates, n (%)",[16],1 (33.3%)
same,"S (sensitive) isolates, n (%)",[16],2 (66.7%)
same,"I (intermediate) isolates, n (%)",[17],0 (0%)
same,"R (resistant) isolates, n (%)",[17],0 (0%)
same,"S (sensitive) isolates, n (%)",[17],18 (100%)
same,MIC,[18],60 µg/mL
CC[C@@H]([C@H](C)O)n1ncn(-c2ccc(N3CCN(c4ccc(OC[C@@H]5CO[C@@](Cn6cncn6)(c6ccc(F)cc6F)C5)cc4)CC3)cc2)c1=O [posaconazole],log10CFU/lung,"[19]; mean ± SEM, 3 animals treated for 3 d, placebo 6.1 ± 0.08",5.2 ± 0.48 log10CFU/lung
same,survival rates,"[19]; survival recorded until 15 d, IL-18 10 ng/mouse intranasally daily -2 d till +7 d, posaconazole 16 mg/kg/day, groups of 10, control 20%",56%
same,MIC,[20],> 16 µg/mL
same,Non-wild type isolates,[21],43%
same,MIC,[1],0.06 to 8 µg/mL
same,MIC,[22],0.5 µg/mL
same,% Survival,"[23]; through Day +21, placebo 0",25%
same,Median Survival,"[23]; treatment from 24 h post infection, IBREXA 30 mg/kg po BID 7 d, LAMB 10 mg/kg iv 4 d, POSA 30 mg/kg po QD 7 d, placebo 8",13 days
same,MICs compared to AD2Δ,[24],not affected
same,median trough drug level,[25],1.39 mg/L
same,MIC,[7],0.125 µg/mL
same,change of MIC,[26],largely unchanged
same,reduction in MIC,[26]; Isolate C with ERG11 WT in place of K143R,2 fold
same,MIC,[27],> 32 µg/mL
same,minimal inhibitory concentrations (MIC),[28],high minimal inhibitory concentrations
same,MIC,"[29]; strain from pleural fluid of an ICU patient, no mutations in cyp51A",0.5 µg/mL
same,MIC,"[29]; two strains from a cystic fibrosis patient, TR34/L98H",1 µg/mL
same,WT,[30]; Argentina,57.1%
same,WT,"[30]; Australia, Panama, USA and Taiwan",> 90%
same,WT,[30]; Italy,47.4%
same,MIC,[31]; first isolate from bursa pus,1 µg/mL
same,MIC,"[31]; isolate two months later, under posaconazole",2 µg/mL
same,"minimal inhibitory concentrations (MIC), in words",[32],low
same,MIC50,[33]; 28 h,0.25
same,MIC90,[33]; 28 h,0.5
same,MIC Range,"[33]; 28 h, 29 strains",0.125–2
same,MIC50,[33]; 48 h,0.25
same,MIC90,[33]; 48 h,0.5
same,MIC Range,[33]; 48 h,0.125–4
same,isolates in the area of technical uncertainty (ATU),[34],60%
same,Resistance,[35],5%
same,Cure rate,[36],25–35%
same,susceptibility,[37],susceptible
